Results taken from US12661308B2, “Antimicrobial AZO compounds and uses thereof” (The Regents Of The University Of Colorado, A Body Corporate, priority 2019, dated 2026).

How the values were obtained:
[1] = system: S. mutans (ATCC 25175) biofilm; assay: Detachment study of S. mutans biofilm on monomer-coated polymeric substrates (Example 1); assay type: cell-based, Streptococcus mutans; details: for detachment of S. mutans biofilm (CFU removed): 50 mg/mL coating solution, light/wash treatment
Protocol: The polymeric substrates were prepared by mixing 54 wt % methyl methacrylate (MMA), 30 wt % polymethylmethacrylate (PMMA, MW ˜35 k), and 16 wt % tetraethylene glycol dimethacrylate (TEGDMA) at 70° C. for 2 hr. After mixing, 1 wt. % azobisisobutyronitrile (AIBN) was added to the formulation as an initiator and mixed.
The mixed formulation was added to circular molds (diameter=6.5 mm) cut from a strip of rubber (thickness=0.9 mm) and pressed between two glass microscope slides. The mold was clamped together and thermally cured at 80° C. for 1.5 hr.
The polymeric substrates were coated as follows. Coating solutions were prepared having the following monomer concentrations (see FIG. 3 for structures of the monomers): 0.5 mg/mL and 50 mg/mL solutions of a phenolic acrylated azobenzene monomer (OH-AAZO), 50 mg/mL acrylated azobenzene monomer (AAZO), 50 mg/mL 4-hydroxyl benzylacrylate (HBA), 50 mg/mL 2-hydroxylethyl methacrylate (HEMA).
The coating solutions included the monomer in N,N′-dimethylformamide (DMF) along with 0.5 mg/mL of AIBN and 0.1 mg/mL of Rhodamine B as an indicator dye. Once mixed, 3 μL of each coating solution was pipetted onto one side of the polymeric substrate and spun at 1000 RPM for 1 min followed by spinning at 6000 RPM for 3 s. The coating was cured under a nail lamp (Melody Susie UV Gel Nail Polish Dryer, Model DR-301C) for at least 15 min before repeating the coating procedure on the other side.
The controlled growth of biofilms varied depending on the bacteria strain. In the case of S. mutans, a BHI agar plate was streaked with S. mutans (ATCC 25175) and allowed to incubate at 37° C. in 5% CO2 for 60 hr to isolate a single bacterial colony. The colony was inoculated in 5 mL of BHI and allowed to incubate statically in the 5% CO2 incubator for 24 hr. The stock solution was diluted 1:50 in a 96-well plate containing the substrates of interest and allowed to incubate in the 5% CO2 incubator for an additional 24 hr.
The detachment study quantified the biofilm grown on each substrate via a series of washes in 1×PBS. The substrate was irradiated using a dental lamp (FlashMax P3 Ortho™, 1900 mW/cm2, wavelength=450-470 nm) on the underside of the vial for a total of ten 3 s irradiations per side. Following the series of washes, the substrate was sonicated for 10 min to remove the residual biofilm on the substrate. The wash solutions were serial diluted, plated, and grown at 37° C. and 5% CO2 to obtain the CFU count.
Images collected from a digital microscope (Zeiss Axioplan II microscope, 630×, step size 0.1 μm) after the substrate and bacteria were treated with BACLIGHT Live/Dead stain are included in FIG. 4.

[2] = system: S. mutans biofilm; assay: S. mutans biofilm growth on coated pit and fissure dental sealants; assay type: cell-based, Streptococcus mutans; details: coating on pit and fissure sealants
From the text: In some implementations, the azobenzene polymers can be used as an antimicrobial coating on pit and fissure dental sealants. […] Azobenzene coatings can be incorporated into pit and fissure sealants as an anti-bacterial coating to prevent tooth decay.

| Compound | detachment of S. mutans biofilm (CFU removed) [1] | S. mutans biofilm on substrate, Live/Dead stain microscopy ([1]; after wash/light treatment) | S. mutans biofilm growth [2] |
| --- | --- | --- | --- |
| C=CC(=O)OCc1ccc(O)cc1 [HBA, 4-hydroxybenzyl acrylate] | minimal detachment |  |  |
| C=C(C)C(=O)OCCO [HEMA, 2-hydroxylethyl methacrylate] | minimal detachment |  |  |
| Acrylated azobenzene [AAZO] | minimal detachment | still contained a robust S. mutans biofilm | significantly reduced |
